Data taken from patent US20070014803A1, “METHODS AND COMPOSITIONS FOR DIAGNOSIS AND TREATMENT OF VIRAL AND BACTERIAL INFECTIONS” (Arbor Vita Corporation, priority 2005, published 2007).
Where no end group is shown, it is not given here.

What was measured:
Experiment in all cases: MATRIX screen against PDZ library (modified G assay)
Assay type in all cases: binding
Conditions in all cases: pre-incubation conditions
[1] = target: T1, MINT1 d1, 2 (Homo sapiens, UniProt Q02410)
T1 construct: MINT1 d1, 2; made in house
Experimental: (§1) Matrix graphPeptides and proteins were tested in an array format constituting a near complete set (255) of all the different PDZ domains in the human genome. Each PDZ domain polypeptide was expressed as a recombinant GST-PDZ polypeptide in a commercial glutathione S-transferase tagged expression system. Specific binding of biotinylated-PL peptides to PDZ domain polypeptides was detected using streptavidin-HRP and TMB substrate. Similarly, specific binding of PL protein-MBP fusion proteins to PDZ domain polypeptides was visualized using biotinylated anti-MBP, streptavidin-HRP and TMB substrate. The relative strength of binding was analyzed and the strong and weak binders are shown for each PL. A PDZ protein that binds more strongly is preferable when used for capturing or identifying PL proteins.
(§2) Two different types of ELISA assays were used to test the HIV Peptides 1904 and 1905. The primary MATRIX screen against all PDZ proteins in the library was performed under pre-incubation conditions, which are a modification of the G assay. A pre-incubation assay incubates the peptide with the HRP-streptavidin before addition of the mixture to the PDZ-coated plate. The subsequent titrations of the peptide against the PDZs of interest were performed under normal ELISA G assay conditions. In normal conditions the peptide is incubated on the PDZ coated plate before the later addition of the HRP-streptavidin. The reagents and supplies for both assays are listed below, as well as the two different protocols.
(§3) The PRISM Matrix ELISA modified G Assay was also used for pre-incubation and for the MATRIX assay. The protocol was as follows.
(§4) 1. Coat plate with 100 μl of 5 μg/ml anti-GST, O/N @ 4° C.
(§5) 2. Dump contents out of plate and tap dry on paper towels
(§6) 3. Block with 200 μl Assay Buffer for 1 to 2 hrs at room temperature
(§7) 4. Prepare proteins in Assay Buffer
(§8) 5. Wash plate 3× with cold PBS*
(§9) 6. Add proteins at 50 μl per well, incubate 1 to 2 hrs at 4° C.
(§10) 7. Prepare peptides in Assay Buffer:
(§11) • Prepare peptides in half of volume need with double of desired concentration. • Dilute HRP (1:1000) in another half of volume (same volume with peptide) then mix with peptides. • Incubate the peptide-HRP mixtures for 20 minutes at RT 8. Wash plate 3× with cold PBS* 9. Add peptide-HRP mixtures at 50 μl per well (write time on plate) 10. Incubate at RT after last peptide has been added for exactly 30 minutes 11. Turn on plate reader and prepare files 12. Promptly wash plate 5× with room temperature PBS 13. Add 100 μl/well TMB substrate (write time on plate) 14. Incubate in dark at room temp for a maximum of 30 minutes 15. Stop reaction with 100 μl of 0.18M H2SO4, 30 min. after adding TMB 16. Take last reading at 450 nm soon after stopping reaction

[2] = target: T2, INADL d3 (Homo sapiens, UniProt Q8NI35)
T2 construct: made in house
Experimental: as §1, §2, §3, §4, §5, §6, §7, §8, §9, §10, §11

[3] = target: T3, MUPP1d11 (Homo sapiens, UniProt O75970)
T3 construct: made in house
Experimental: as §1, §2, §3, §4, §5, §6, §7, §8, §9, §10, §11

[4] = target: T4, GORASP1 d1 (Homo sapiens, UniProt Q9BQQ3)
T4 construct: made in house
Experimental: as §1, §2, §3, §4, §5, §6, §7, §8, §9, §10, §11

[5] = target: T5, KIAA0316 (Homo sapiens, UniProt Q14CM0, A161E)
T5 construct: made in house
Experimental: as §1, §2, §3, §4, §5, §6, §7, §8, §9, §10, §11

T2 sequence (Q8NI35 with tags, fused parts or gaps): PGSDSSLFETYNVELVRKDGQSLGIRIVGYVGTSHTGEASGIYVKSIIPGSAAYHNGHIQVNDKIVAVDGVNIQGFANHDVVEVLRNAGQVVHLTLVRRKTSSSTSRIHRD
T3 sequence (O75970 1716-1813): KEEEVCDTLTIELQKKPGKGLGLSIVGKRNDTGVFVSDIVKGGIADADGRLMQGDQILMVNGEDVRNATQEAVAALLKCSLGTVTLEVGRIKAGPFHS
T5 sequence (Q14CM0 with tags, fused parts or gaps A161E): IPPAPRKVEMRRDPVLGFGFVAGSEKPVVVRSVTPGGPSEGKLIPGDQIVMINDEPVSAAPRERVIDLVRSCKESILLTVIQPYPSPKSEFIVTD
T4 sequence (Q9BQQ3 1-110): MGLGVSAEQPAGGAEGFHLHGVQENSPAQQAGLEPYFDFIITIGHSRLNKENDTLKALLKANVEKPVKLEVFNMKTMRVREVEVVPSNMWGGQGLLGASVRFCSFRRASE
T1 sequence (Q02410 651-828): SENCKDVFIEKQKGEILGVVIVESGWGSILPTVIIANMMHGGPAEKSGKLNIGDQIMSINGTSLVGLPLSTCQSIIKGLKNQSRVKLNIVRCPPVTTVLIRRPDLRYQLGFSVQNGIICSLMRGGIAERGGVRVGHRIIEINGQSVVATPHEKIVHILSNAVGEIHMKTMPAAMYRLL

YGRKKRRQRRRRQGLERILL-OH [Peptide 1904]
STRONG: Intensity of Hit, PDZ MINT1 d1, 2 [1] | Intensity of Hit, PDZ INADL d3 [2] | Intensity of Hit, PDZ MUPP1d11 [3] | Intensity of Hit, PDZ GORASP1 d1 [4] | Intensity of Hit, PDZ KIAA0316 [5]
